Source: patent US20120015352A1, “METHOD OF DETERMINING SENSITIVITY OF HUMAN OR NON-HUMAN ANIMAL CELLS TO AN IAP ANTAGONIST” (Otto-von-Guericke-Universitat Magdeburg, priority 2009, published 2012)
Residues, ends and D or L forms follow the SMILES beside them. *: point of attachment. Cbz = O=C(OCc1ccccc1)*; CH2F = FC*

Assays:
HaCaT cells [1] = test: Cytotoxicity assay (crystal violet); type: cell-based, human
Procedure: (§1) Cytotoxicity assay. Crystal violet staining of attached, living cells was performed 20-24 h after stimulation with the indicated concentrations of TRAIL or CD95L in 96 well plates in triplicate wells per condition as described^37. The optical density (OD) of control cultures was normalized to 100% compared to stimulated cells. For statistical analysis the standard error of mean (SEM) was determined for 3-7 independent experiments of each cell line and stimulatory condition.

A5-RT3 cells = test: Cytotoxicity assay (crystal violet); type: cell-based, human
Procedure: as §1

HaCaT cells [2] = test: Immunofluorescence microscopy (Hoechst 33342, nuclear morphology); type: cell-based, human; settings: zVAD-fmk 10 μM; for protection from cell death: CD95L 24 hrs
Procedure: Immunofluorescence microscopy. For detection of nuclear morphology, 5×10^4 cells of the respective cells were seeded per well in a 12-well plate. Subsequently, cells were incubated with Hoechst 33342 (5 μg/ml) for 15 min at 37° C. immediately followed by phase contrast or fluorescence microscopy using a suitable instrument (Leica). Digital images were identically processed using appropriate software.

TRAF2 [3] = target: T1, TRAF2 (human, UniProt Q12933 2-501); test: caspase-8 co-immunoprecipitation (complex II), Western blot
T1 construct: Endogenous protein
T1 sequence (looked up): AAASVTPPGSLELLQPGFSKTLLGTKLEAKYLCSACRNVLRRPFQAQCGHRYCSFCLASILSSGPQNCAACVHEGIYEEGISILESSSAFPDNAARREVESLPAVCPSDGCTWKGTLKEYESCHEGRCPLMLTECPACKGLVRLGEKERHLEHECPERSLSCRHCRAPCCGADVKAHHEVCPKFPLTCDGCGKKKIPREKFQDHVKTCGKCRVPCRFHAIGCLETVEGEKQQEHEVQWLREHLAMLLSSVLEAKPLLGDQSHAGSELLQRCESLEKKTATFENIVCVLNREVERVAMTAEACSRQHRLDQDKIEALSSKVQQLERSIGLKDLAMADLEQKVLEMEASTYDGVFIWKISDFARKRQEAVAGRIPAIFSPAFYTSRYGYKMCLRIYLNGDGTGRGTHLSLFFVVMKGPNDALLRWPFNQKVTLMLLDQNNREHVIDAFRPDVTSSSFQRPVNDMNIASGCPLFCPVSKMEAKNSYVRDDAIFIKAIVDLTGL

RIP1 = target: T2, RIP1 (human, UniProt Q13546 1-671); test: CD95L-Fc ligand affinity precipitation of the DISC from control-infected HaCaT cells, Western blot
T2 construct: Endogenous protein; also called kinase RIP1; full length RIP1
T2 sequence (looked up): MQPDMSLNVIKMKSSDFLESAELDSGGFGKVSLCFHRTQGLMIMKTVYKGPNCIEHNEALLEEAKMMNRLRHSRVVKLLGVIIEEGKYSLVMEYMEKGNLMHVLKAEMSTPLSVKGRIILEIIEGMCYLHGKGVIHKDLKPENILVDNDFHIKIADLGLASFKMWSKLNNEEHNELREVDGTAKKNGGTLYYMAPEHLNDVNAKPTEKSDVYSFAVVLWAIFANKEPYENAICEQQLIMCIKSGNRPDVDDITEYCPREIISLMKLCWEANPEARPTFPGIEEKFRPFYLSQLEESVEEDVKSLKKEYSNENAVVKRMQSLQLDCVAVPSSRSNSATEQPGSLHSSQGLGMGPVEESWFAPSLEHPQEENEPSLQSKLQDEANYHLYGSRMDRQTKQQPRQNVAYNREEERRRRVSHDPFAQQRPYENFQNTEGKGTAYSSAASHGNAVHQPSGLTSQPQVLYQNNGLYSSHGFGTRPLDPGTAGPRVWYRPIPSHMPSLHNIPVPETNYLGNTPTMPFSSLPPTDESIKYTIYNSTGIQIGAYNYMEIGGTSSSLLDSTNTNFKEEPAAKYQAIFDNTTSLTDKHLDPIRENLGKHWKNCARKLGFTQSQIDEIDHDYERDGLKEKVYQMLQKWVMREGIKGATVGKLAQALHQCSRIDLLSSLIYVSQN
Procedure: (§2) Ligand affinity precipitation of Receptor complexes. For the precipitation of the CD95L DISC, 5×10⁶ cells were used for each condition. Cells were washed once with medium at 37° C. and subsequently preincubated for 1 h with 10 μM zVAD-fmk and, as indicated with 100 nM IAP inhibitor at 37° C. Subsequently cells were treated with 250 units/ml CD95L-Fc for 2 h or, for the unstimulated control, in the absence of ligands. Receptor complex formation was stopped by washing the monolayer four times with ice-cold PBS. Cells were lysed on ice by addition of 2 ml lysis buffer (30 mM Tris-HCl pH 7.5 at 21° C., 120 mM NaCl, 10% Glycerol, 1% Triton X-100, Complete® protease inhibitor cocktail (Roche Molecular Diagnostics, Mannheim, Germany)). After 30 min lysis on ice, the lysates were centrifuged two times at 20,000×g for 5 min and 30 min, respectively, to remove cellular debris. A minor fraction of these clear lysates were used to control for the input of the respective proteins. For the precipitation of the CD95 receptor and stimulation-dependent recruited proteins, Apo-1 IgG3 antibodies (kindly provided by P. H. Krammer) were added to the lysates prepared from non-stimulated as well as stimulated cells to precipitate the receptor-interacting proteins. […]

TRAF2 [4] = target: T1, TRAF2; test: CD95L-Fc ligand affinity precipitation of the CD95 DISC, Western blot
Procedure: as §2

A375 melanoma cells = test: Fc-CD95L unit determination (killing of cells); type: cell-based; settings: one unit = 1:500 dilution of stock Fc-CD95L supernatant
Procedure: Materials. […] B-actin Abs were from a suitable source. His-FLAG-TRAIL (HF-TRAIL) was produced as recently described^17. For expression of Fc-CD95L we used a construct recently published^57 (kindly provided by P. Schneider, Epalinges, Switzerland). One unit of Fc-CD95L was determined as a 1:500 dilution of the stock Fc-CD95L supernatant, and one unit/ml of Fc-CD95L supernatant was sufficient to kill 50 percent (LD50) of A375 melanoma cells, as recently described^58. […] Horseradish peroxidase (HRP)-conjugated goat anti-rabbit, goat anti rat IgG, goat anti-mouse IgG Abs and HRP-conjugated goat anti-mouse IgG1, IgG2a, IgG2b, and IgG1κ were obtained from Southern Biotechnology Associates (Birmingham, Ala.). TRAIL-R1 (HS 101), TRAIL-R2 (HS 201), mAbs for FACScan analysis of surface receptor expression were used as previously described^26 and are available from Alexis (San Diego, Calif.). CD95 Abs (Apo-1 IgG1 and IgG3a) were kindly provided by P. H. Krammer (German Cancer Research Center, Heidelberg, Germany). Cy5-conjugated Annexin V was purchased from Pharmingen (Hamburg, Germany). The IAP inhibitor (compound A) was provided by Tetralogic Pharmaceuticals (Malvern, Pa., USA). Compound A is exemplified in US20060194741, which is incorporated in its entirety by reference herein, and Compound A has the following structure: […]

## CN1C(=O)C(Cc2c[nH]c3ccccc23)NC1=S (stereo not drawn) [necrostatin-1]
HaCaT cells [1]; cFLIPS-expressing HaCaT, IAP inhibitor + CD95L, necrostatin-1 50 μM, 24 hrs
  protection from CD95L-mediated cell death: fully protected
HaCaT cells [1]; necrostatin-1 50 μM added to zVAD-fmk-protected cells, IAP inhibitor 100 nM
  protection from TRAIL- or CD95L-mediated cell death: fully recovered viability
HaCaT cells [1]; necrostatin-1 50 μM alone, no caspase inhibitor, IAP inhibitor 100 nM
  protection from death ligand-mediated cell death: ineffective
A5-RT3 cells; cFLIP-shRNA A5-RT3 cells, necrostatin-1 50 μM, IAP inhibitor, CD95L
  protection from death ligand-mediated cell death: ineffective

## COC(=O)C[C@H](NC(=O)[C@H](C)NC(=O)[C@@H](NC(=O)OCc1ccccc1)C(C)C)C(=O)CF [zVAD-fmk] (Cbz-Val-Ala-Asp(OMe)-CH2F)
HaCaT cells [2]; CD95L 4 hrs, in the presence of IAP inhibitor
  protection of cellular morphology or DNA fragmentation: fully protected
HaCaT cells [2]; in the presence of IAPs (no IAP inhibitor)
  protection from cell death: complete protection
HaCaT cells [2]; with IAP inhibitor
  protection from cell death: did not protect
HaCaT cells [1]; cFLIPS-expressing HaCaT, IAP inhibitor + CD95L, zVAD-fmk 10 μM
  protection from death receptor-mediated cell death: not protected
HaCaT cells [1]; zVAD-fmk 10 μM, in the presence of IAP inhibitor 100 nM
  block of TRAIL- or CD95L-mediated cell death: only partially blocked
HaCaT cells [1]; zVAD-fmk 10 μM, without IAP inhibitor, 24 hrs
  block of TRAIL- or CD95L-mediated cell death: fully blocked cell death
A5-RT3 cells; cFLIP-downregulated cells insensitive to IAP inhibitor, zVAD-fmk
  protection from death ligand-mediated cell death: fully protected

B1: caspase-8 (enzyme, human, UniProt Q14790 1-479, looked up)
chain: MDFSRNLYDIGEQLDSEDLASLKFLSLDYIPQRKQEPIKDALMLFQRLQEKRMLEESNLSFLKELLFRINRLDLLITYLNTRKEEMERELQTPGRAQISAYRVMLYQISEEVSRSELRSFKFLLQEEISKCKLDDDMNLLDIFIEMEKRVILGEGKLDILKRVCAQINKSLLKIINDYEEFSKERSSSLEGSPDEFSNGEELCGVMTISDSPREQDSESQTLDKVYQMKSKPRGYCLIINNHNFAKAREKVPKLHSIRDRNGTHLDAGALTTTFEELHFEIKPHDDCTVEQIYEILKIYQLMDHSNMDCFICCILSHGDKGIIYGTDGQEAPIYELTSQFTGLKCPSLAGKPKVFFIQACQGDNYQKGIPVETDSEEQPYLEMDLSSPQTRYIPDEADFLLGMATVNNCVSYRNPAEGTWYIQSLCQSLRERCPRGDDILTILTEVNYEVSNKDDKKNMGKQMPQPTFTLRKKLVFPSD
notes: Endogenous protein in cell lysates; also called caspase-8 p43/41 (cleaved form seen in the DISC)
TRAF2 [3]
  binding result: no binding

B2: CD95 (receptor, human, UniProt P25445 26-335, looked up)
chain: QVTDINSKGLELRKTVTTVETQNLEGLHHDGQFCHKPCPPGERKARDCTVNGDEPDCVPCQEGKEYTDKAHFSSKCRRCRLCDEGHGLEVEINCTRTQNTKCRCKPNFFCNSTVCEHCDPCTKCEHGIIKECTLTSNTKCKEEGSRSNLGWLCLLLLPIPLIVWVKRKEVQKTCRKHRKENQGSHESPTLNPETVAINLSDVDLSKYITTIAGVMTLSQVKGFVRKNGVNEAKIDEIKNDNVQDTAEQKVQLLRNWHQLHGKKEAYDTLIKDLKKANLCTLAEKIQTIILKDITSDSENSNFRNEIQSLV
notes: whole, on cells; recruitment to it may be indirect (through FADD); also called CD95 DISC; CD95 receptor
RIP1
  binding result: binds
TRAF2 [4]
  binding result: no binding

B3: Fc-CD95L: Fc-CD95L supernatant expressed from a published construct; death ligand (protein)
chain: EKKELRKVAHLTGKSNSRSMPLEWEDTYGIVLLSGVKYKKGGLVINETGLYFVYSKVYFRGQSCNNLPLSHKVYMRNSKYPQDLVMMEGKMMSYCTTGQMWARSSYLGAVFNLTSADHLYVNVSELSLVNFEESQTFFGLYKL
modifications: left off: a dimerising Fc or GST
notes: Fc-CD95L supernatant expressed from a published construct; death ligand
A375 melanoma cells
  LD50 (kill 50 percent of cells): one
